Measurements taken from patent publication US8802638B1, “Flavonoid treatment of glycogen synthase kinase-based disease” (University of South Florida, priority 2007, dated 2014).

How the values were obtained:
PS1-APP association = assay: PS1-APP association, immunoprecipitation/Western blot in SweAPP N2a cells; assay type: cell-based, murine; details: 20 μM for 4 hrs or siRNA transfection
Procedure: Cultured cells or mouse brain were lysed in ice-cold lysis buffer described above, and an aliquot corresponding to 50 μg of total protein was electrophoretically separated using 12% Tris-HCl or 16.5% Tris-tricine gels. Electrophoresed proteins were then transferred to PVDF membranes, washed in dH2O, and blocked for 1 hr at ambient temperature in Tris-buffered saline (TBS; Bio-Rad) containing 5% (w/v) non-fat dry milk. After blocking, membranes were hybridized for 1 hr at ambient temperature with various primary antibodies. Membranes were then washed 3× for 5 min each in dH2O and incubated for 1 hr at ambient temperature with the appropriate HRP-conjugated secondary antibody (1:1,000). All antibodies were diluted in TBS containing 5% (w/v) of non-fat dry milk. Blots were developed using the luminol reagent (Pierce Biotechnology). Densitometric analysis was done as previously described using a FluorS Multiimager with Quantity One™ software. Immunoprecipitation was performed for detection of sAPP-α, sAPP-β and Aβ by incubating 200 μg of total protein of each sample with various sequential combinations of 6E10 (1:100) and/or 22C11 (1:100) antibodies overnight with gentle rocking at 4° C., and 10 μL of 50% protein A-Sepharose beads were then added to the sample (1:10; Sigma) prior to gentle rocking for an additional 4 hrs at 4° C. Following washes with 1× cell lysis buffer, samples were subjected to Western blot as described above. Antibodies used for Western blot included the APP-carboxyl-terminal antibody (1:50)), amino-terminal APP antibody (clone 22C11), or 6E10 (1:1,000), or actin antibody (1:1,500; as an internal reference control). γ-secretase activity was quantified in cell lysates using available kits (R&D Systems, Minneapolis, Minn.), based on secretase-specific peptides conjugated to fluorogenic reporter molecules.
Cell lysates of luteolin-treated SweAPP N2a cells were immunoprecipitated by PS1 antibody and probed for APP to clarify how phospho-PS1 CTF isoforms may regulate γ-secretase activity, seen in FIGS. 26(A) through 27(B). As illustrated in FIGS. 26(A) and (B), the APP-PS1 association is disrupted by luteolin, SB-415286 treatment, and GSK-3α siRNA. […] Thus, GSK-3α or, more specifically, downstream phosphorylation of the PS1 CTF plays an essential role in regulating the association of γ-secretase complex with its APP substrate.

[1] = system: primary neuronal cells derived from Tg2576 mice; assay: APP proteolysis (Aβ ELISA, IP, APP CTF Western blot) in Tg2576 mouse-derived primary neuronal cells; assay type: cell-based; details: 12 hrs
Procedure: (§1) Cultured cells or mouse brain were lysed in ice-cold lysis buffer described above, and an aliquot corresponding to 50 μg of total protein was electrophoretically separated using 12% Tris-HCl or 16.5% Tris-tricine gels. Electrophoresed proteins were then transferred to PVDF membranes, washed in dH2O, and blocked for 1 hr at ambient temperature in Tris-buffered saline (TBS; Bio-Rad) containing 5% (w/v) non-fat dry milk. After blocking, membranes were hybridized for 1 hr at ambient temperature with various primary antibodies. Membranes were then washed 3× for 5 min each in dH2O and incubated for 1 hr at ambient temperature with the appropriate HRP-conjugated secondary antibody (1:1,000). Antibodies were obtained against the amino-terminus and carboxyl-terminus of PS1 (Chemicon, Temecula, Calif.), amino-terminus and carboxyl-terminus of APP (22C11), actin (Roche, Basel, Switzerland), Aβ (6E10, 48G) (Signet Laboratories, Dedham, Mass.), phosphor-GSK3α (ser^21, clone BK202) (Upstate, Lake Placid, N.Y.), phospho-GSK3α/β (pTyr^279/216) (Sigma), phospho-GSK-3β (Ser^9) (Sigma) and total GSK-3α/β (Sigma). All antibodies were diluted in TBS containing 5% (w/v) of non-fat dry milk. […] Densitometric analysis was done as previously described using a FluorS Multiimager with Quantity One™ software (39). […] Antibodies used for Western blot included the APP-carboxyl-terminal antibody (1:50)), amino-terminal APP antibody (clone 22C11), or 6E10 (1:1,000), or actin antibody (1:1,500; as an internal reference control). γ-secretase activity was quantified in cell lysates using available kits based on secretase-specific peptides conjugated to fluorogenic reporter molecules.
SweAPP N2a cells and primary neuronal cells derived from Tg2576 mice were treated with varying doses of luteolin to examine luteolin's effect on APP proteolysis. Cellular extracts were collected and analyzed using immunoprecipitation (IP), Western blot, and ELISA. […] SweAPP N2a and primary Tg2576-derived neuronal cells CTF profiles were analyzed following luteolin treatment to determine at which level luteolin impacts amyloid processing.

PS1 = PS1 processing and PS1-APP association in brain homogenates of luteolin-treated Tg2576 mice; assay type: in vivo; details: 20 mg/kg i.p. daily for 30 days
Procedure: Sixteen (8♂/8♀) Tg2576 mice (Taconic, Germantown, N.Y.) were used; 8 mice received luteolin, and the other 8 received phosphate buffered saline (PBS). Beginning at 8 months of age, Tg2576 mice were intraperitoneally injected with luteolin (20 mg/kg) or PBS daily for 30 days based on previously described methods. These mice were then sacrificed at 9 months of age for analyses of Aβ levels and Aβ load in the brain according to previously described methods. Animals were housed and maintained in the College of Medicine Animal Facility at the University of South Florida (USF), and all experiments were in compliance with protocols approved by the USF Institutional Animal Care and Use Committee.
as §1, with “(1:1,000).” for “(1:1,000). Antibodies were obtained against the amino-terminus and carboxyl-terminus of PS1 (Chemicon, Temecula, Calif.), amino-terminus and carboxyl-terminus of APP (22C11), actin (Roche, Basel, Switzerland), Aβ (6E10, 48G) (Signet Laboratories, Dedham, Mass.), phosphor-GSK3α (ser^21, clone BK202) (Upstate, Lake Placid, N.Y.), phospho-GSK3α/β (pTyr^279/216) (Sigma), phospho-GSK-3β (Ser^9) (Sigma) and total GSK-3α/β (Sigma). All antibodies were diluted in TBS containing 5% (w/v) of non-fat dry milk.”, “molecules. […]” for “molecules.”
Brain homogenates from these mice were subsequently analyzed by immunoprecipitation, Western blot, and ELISA, seen in FIGS. 28(A) through 37. […]

O=c1cc(-c2ccc(O)c(O)c2)oc2cc(O)cc(O)c12 [luteolin]
ratio of APP to actin (full-length APP levels) (PS1-APP association; 6E10 Western blot of lysates): no significant changes | APP-PS1 association (PS1-APP association; IP with anti-PS1 CTF, 6E10 blot): disrupted | accumulation of both α and β CTFs (increase over control) ([1]; dose dependent, Western blot densitometry): 2-3 fold | Aβ1-40, 42 peptide generation abrogated ([1]; luteolin 20 μM): > 70% | Aβ1-40, 42 peptide generation abrogated ([1]; luteolin 40 μM): > 85% | holo APP expression in brain homogenates (PS1): no significant changes | PS1-APP association in brain homogenates (PS1; IP with PS1 antibody): effectively abolished PS1-APP association | PS1 processing (PS1 CTF to actin ratio) (PS1; brain homogenates): significantly lower levels of PS1 processing
